Results on 1 compound are retold here after article PMC3759966 (The Biochemical journal, 2009).

For one test, the target named is IRR (Homo sapiens, UniProt P14616). The test is described as follows: Kinase profiling panel. As to conditions: read-out: percentage of kinase activity compared with control. In kind it is biochemical.
Another test addresses T1, GCK (Homo sapiens, UniProt Q12851).
T1 sequence (Q12851 1-820): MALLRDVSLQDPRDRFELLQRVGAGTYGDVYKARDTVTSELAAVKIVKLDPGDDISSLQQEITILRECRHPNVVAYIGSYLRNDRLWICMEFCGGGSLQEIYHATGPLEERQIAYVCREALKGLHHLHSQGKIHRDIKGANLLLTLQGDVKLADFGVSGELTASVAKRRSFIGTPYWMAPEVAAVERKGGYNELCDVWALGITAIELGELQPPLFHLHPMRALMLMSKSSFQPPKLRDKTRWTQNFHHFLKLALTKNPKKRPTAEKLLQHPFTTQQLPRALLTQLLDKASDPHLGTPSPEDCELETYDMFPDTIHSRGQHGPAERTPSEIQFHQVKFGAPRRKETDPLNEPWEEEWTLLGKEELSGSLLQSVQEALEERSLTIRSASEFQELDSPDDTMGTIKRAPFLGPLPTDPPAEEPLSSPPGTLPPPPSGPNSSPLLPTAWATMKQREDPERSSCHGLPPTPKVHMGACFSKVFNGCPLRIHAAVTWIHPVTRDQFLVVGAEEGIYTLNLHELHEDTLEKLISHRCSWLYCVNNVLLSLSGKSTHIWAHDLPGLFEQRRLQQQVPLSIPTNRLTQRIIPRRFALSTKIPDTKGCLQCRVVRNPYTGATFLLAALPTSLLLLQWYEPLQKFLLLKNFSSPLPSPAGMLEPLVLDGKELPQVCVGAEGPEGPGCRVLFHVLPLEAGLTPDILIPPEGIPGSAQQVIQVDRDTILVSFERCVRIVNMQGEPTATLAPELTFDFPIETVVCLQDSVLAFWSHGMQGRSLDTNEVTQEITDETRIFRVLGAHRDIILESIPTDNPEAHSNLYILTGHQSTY
The experiment in a line: Kinase profiling panel. The test is classed as biochemical. As to conditions: read-out: percentage of kinase activity compared with control.

The test system of a further test is AMPK. The experiment in a line: Kinase profiling panel. In kind it is biochemical. To be noted: 0.1 μM inhibitor.
Another test has as its target PHK (Homo sapiens, UniProt Q16816). The test is described as follows: Kinase profiling panel. In kind it is biochemical. As to conditions: read-out: percentage of kinase activity compared with control.
The target in another test is Aurora B kinase (Homo sapiens, UniProt Q96GD4). The experiment in a line: Kinase profiling panel. In kind it is biochemical. To be noted: read-out: percentage of kinase activity compared with control.
Aurora B kinase, sequence (Q96GD4 whole entry): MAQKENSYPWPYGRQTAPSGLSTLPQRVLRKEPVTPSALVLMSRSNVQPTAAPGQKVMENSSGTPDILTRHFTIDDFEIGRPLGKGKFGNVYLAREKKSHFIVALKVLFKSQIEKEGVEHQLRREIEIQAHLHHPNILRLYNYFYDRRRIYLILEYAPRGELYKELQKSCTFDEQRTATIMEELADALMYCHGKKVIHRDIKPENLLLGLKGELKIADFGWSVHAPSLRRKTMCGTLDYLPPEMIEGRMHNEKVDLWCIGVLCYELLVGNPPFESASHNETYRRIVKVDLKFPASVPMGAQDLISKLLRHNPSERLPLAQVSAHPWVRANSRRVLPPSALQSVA
In the next test the target is SmMLCK (Homo sapiens, UniProt Q15746). The test is described as follows: Kinase profiling panel. In kind it is biochemical. As to conditions: read-out: percentage of kinase activity compared with control.
SmMLCK, sequence (Q15746 923-1914): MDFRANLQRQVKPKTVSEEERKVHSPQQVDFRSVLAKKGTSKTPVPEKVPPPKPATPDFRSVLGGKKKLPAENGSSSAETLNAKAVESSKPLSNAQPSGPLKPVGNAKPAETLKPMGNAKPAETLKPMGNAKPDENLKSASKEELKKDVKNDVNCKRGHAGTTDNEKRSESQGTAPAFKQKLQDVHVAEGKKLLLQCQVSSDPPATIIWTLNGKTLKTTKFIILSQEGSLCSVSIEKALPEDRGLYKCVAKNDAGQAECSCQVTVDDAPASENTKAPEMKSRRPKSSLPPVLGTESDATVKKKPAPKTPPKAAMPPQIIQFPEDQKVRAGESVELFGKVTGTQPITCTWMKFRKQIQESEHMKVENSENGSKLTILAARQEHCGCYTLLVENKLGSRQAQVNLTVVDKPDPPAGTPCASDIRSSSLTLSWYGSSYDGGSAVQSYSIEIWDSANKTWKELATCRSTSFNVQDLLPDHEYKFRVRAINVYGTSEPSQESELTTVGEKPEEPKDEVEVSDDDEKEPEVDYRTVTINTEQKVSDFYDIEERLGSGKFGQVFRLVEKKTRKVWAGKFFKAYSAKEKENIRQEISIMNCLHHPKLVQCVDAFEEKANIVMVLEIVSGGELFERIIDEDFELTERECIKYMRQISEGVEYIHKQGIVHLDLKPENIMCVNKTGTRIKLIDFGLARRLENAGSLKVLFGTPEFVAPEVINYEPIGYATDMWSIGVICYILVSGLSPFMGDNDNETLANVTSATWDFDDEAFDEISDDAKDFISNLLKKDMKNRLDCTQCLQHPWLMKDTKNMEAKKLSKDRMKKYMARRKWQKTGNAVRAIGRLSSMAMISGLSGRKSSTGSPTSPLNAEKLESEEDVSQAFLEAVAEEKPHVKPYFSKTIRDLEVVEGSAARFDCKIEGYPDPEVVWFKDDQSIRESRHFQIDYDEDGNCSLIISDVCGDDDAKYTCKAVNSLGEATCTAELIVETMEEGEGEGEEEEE
A further test has as its target CK2 (Homo sapiens, UniProt P68400). The test is described as follows: Kinase profiling panel. In kind it is biochemical. As to conditions: read-out: percentage of kinase activity compared with control.
The target of another test is T2, SGK1 (Homo sapiens, UniProt O00141).
T2 sequence (O00141 1-431): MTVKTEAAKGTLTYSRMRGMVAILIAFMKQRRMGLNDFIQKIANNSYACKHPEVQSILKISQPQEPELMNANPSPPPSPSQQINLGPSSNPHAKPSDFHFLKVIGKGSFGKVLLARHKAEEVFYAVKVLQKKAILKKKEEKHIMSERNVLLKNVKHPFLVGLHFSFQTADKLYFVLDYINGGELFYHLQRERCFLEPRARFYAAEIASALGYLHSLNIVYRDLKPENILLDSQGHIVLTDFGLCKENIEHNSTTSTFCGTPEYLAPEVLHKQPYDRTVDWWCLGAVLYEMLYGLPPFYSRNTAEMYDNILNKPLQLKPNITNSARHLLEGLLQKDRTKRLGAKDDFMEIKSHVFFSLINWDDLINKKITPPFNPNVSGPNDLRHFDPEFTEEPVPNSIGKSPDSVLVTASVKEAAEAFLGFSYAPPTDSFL
The experiment in a line: Kinase profiling panel. In kind it is biochemical. To be noted: read-out: percentage of kinase activity compared with control.

The test system of test [1] is ERM protein phosphorylation (site equivalent to Thr567 of ezrin). The experiment in a line: ERM protein phosphorylation in HEK-293 cells. To be noted: 10 μM, 1 h; in the presence or absence of G14V-Rho. The test is classed as cell-based, human.
A further test concerns the target T3, TTK (Homo sapiens, UniProt P33981).
T3 sequence (P33981 1-857): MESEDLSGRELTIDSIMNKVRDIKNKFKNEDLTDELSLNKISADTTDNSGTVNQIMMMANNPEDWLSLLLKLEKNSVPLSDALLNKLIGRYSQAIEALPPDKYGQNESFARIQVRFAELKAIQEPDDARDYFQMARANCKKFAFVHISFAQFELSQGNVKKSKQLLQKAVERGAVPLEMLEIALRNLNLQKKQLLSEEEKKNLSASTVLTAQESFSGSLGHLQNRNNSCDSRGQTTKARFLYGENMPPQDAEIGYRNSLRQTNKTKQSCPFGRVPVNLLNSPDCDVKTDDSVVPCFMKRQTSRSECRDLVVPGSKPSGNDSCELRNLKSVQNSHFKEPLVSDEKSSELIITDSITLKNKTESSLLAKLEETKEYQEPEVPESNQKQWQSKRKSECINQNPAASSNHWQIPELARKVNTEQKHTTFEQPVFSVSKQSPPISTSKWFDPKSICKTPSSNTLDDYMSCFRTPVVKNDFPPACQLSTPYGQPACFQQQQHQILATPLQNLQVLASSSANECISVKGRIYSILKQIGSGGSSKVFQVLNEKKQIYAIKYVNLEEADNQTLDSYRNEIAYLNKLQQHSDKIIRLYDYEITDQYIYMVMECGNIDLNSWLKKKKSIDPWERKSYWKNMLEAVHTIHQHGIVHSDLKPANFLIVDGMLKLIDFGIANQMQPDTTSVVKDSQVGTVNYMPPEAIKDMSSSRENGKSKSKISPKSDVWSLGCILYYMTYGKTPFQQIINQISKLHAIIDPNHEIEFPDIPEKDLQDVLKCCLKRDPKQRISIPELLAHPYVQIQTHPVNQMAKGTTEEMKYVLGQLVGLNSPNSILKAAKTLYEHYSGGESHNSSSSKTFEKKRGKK
The experiment in a line: Kinase profiling panel. The test is classed as biochemical. As to conditions: read-out: percentage of kinase activity compared with control.

A further test has as its target IGF-1R (Homo sapiens, UniProt P08069). The experiment in a line: Kinase profiling panel. The test is classed as biochemical. As to conditions: read-out: percentage of kinase activity compared with control.
A further test has as its target PKCα (Homo sapiens, UniProt P17252). The experiment in a line: Kinase profiling panel. In kind it is biochemical. To be noted: read-out: percentage of kinase activity compared with control.
Another test has as its target PAK4 (Homo sapiens, UniProt O96013). The test is described as follows: Kinase profiling panel. In kind it is biochemical. To be noted: read-out: percentage of kinase activity compared with control.
The subject of test [2] is panel of 85 protein kinases. The experiment in a line: Selectivity over kinase panel. The test is classed as biochemical. To be noted: 1 μM; out of the 85 kinases profiled.

IRR, sequence (P14616 27-1297): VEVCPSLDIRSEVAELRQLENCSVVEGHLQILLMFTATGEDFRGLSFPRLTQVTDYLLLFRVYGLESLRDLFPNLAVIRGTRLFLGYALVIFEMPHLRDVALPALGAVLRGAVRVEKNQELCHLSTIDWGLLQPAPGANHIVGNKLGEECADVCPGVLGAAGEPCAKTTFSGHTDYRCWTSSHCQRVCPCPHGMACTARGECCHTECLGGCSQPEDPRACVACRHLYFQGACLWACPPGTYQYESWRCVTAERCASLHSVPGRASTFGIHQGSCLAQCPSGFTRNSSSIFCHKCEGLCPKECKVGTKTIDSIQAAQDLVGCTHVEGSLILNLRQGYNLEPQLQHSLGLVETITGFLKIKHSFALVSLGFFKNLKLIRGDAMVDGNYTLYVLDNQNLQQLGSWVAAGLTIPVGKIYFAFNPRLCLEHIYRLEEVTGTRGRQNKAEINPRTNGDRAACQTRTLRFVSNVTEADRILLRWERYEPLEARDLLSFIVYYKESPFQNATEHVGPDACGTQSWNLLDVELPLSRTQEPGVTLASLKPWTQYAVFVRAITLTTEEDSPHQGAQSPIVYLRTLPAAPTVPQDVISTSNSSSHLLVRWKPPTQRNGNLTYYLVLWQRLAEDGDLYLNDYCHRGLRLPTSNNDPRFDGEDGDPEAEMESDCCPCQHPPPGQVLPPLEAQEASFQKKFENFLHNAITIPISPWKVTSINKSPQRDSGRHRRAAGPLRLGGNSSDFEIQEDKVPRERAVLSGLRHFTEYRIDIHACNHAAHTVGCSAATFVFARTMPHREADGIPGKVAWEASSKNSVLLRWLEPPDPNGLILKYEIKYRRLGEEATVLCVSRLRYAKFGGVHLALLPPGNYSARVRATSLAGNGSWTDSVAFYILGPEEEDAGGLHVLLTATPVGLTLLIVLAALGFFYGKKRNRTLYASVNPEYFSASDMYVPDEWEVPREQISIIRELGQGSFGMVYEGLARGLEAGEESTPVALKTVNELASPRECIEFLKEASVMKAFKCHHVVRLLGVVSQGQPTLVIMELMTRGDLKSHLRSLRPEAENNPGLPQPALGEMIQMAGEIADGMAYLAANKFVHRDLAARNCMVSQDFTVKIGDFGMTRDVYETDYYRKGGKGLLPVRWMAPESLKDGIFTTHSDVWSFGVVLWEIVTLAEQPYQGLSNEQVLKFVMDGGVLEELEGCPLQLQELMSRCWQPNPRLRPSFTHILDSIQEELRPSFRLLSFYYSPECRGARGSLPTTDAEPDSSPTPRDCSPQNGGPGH
CK2, sequence (P68400 whole entry): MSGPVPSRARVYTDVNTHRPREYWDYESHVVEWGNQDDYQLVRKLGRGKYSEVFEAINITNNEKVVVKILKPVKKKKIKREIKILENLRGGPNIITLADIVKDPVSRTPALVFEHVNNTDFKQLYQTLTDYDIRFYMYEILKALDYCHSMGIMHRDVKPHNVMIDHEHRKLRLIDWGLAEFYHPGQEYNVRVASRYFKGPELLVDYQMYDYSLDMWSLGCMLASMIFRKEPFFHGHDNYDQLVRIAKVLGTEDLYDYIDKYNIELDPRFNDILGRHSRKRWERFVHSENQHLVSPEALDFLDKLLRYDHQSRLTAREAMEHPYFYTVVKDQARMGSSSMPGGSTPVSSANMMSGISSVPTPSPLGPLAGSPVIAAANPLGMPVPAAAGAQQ
IGF-1R, sequence (P08069 31-1367): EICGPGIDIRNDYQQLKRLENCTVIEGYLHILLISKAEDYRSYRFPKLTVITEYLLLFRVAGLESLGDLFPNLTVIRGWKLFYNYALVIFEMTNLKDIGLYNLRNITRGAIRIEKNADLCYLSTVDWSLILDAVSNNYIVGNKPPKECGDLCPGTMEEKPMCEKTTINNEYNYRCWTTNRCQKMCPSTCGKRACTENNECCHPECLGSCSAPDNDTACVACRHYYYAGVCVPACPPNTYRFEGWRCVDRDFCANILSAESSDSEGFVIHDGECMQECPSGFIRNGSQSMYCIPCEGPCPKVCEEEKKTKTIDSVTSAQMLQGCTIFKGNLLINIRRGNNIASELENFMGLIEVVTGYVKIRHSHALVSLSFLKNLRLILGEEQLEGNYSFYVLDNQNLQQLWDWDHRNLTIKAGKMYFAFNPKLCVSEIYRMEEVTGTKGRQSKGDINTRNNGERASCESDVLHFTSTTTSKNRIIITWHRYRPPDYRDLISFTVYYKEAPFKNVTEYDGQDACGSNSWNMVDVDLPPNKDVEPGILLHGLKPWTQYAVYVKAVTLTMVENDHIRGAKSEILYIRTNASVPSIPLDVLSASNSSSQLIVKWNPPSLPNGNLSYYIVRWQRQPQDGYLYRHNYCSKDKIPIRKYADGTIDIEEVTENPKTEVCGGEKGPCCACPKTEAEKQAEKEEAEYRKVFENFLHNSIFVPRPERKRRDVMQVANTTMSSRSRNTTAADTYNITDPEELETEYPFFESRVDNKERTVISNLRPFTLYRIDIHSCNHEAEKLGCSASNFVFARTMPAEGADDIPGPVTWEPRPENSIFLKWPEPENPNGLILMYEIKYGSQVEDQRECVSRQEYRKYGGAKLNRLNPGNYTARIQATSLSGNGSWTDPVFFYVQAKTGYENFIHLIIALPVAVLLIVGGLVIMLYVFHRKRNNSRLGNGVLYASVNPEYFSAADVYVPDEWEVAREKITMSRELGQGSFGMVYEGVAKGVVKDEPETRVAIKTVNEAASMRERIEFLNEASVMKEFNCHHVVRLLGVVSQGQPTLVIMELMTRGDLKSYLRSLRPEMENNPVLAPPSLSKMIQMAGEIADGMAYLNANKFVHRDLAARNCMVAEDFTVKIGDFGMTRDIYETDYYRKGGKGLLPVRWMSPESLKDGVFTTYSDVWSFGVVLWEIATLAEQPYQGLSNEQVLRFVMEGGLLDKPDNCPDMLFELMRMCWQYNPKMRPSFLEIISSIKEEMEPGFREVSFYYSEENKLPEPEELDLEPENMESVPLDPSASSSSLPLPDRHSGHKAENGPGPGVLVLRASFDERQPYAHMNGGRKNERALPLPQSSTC
PHK, sequence (Q16816 whole entry): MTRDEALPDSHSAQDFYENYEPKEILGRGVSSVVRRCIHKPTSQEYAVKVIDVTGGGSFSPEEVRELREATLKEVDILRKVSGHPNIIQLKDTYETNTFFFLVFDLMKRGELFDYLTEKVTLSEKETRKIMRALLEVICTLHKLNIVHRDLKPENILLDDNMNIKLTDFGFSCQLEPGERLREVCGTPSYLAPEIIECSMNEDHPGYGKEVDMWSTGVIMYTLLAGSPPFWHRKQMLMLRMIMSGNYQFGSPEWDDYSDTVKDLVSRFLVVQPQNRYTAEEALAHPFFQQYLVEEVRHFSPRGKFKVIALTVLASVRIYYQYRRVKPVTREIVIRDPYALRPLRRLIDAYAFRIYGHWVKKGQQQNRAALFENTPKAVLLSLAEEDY

For the compound `CCN(CC)CCNC(=O)c1c(C)[nH]c(/C=C2\C(=O)Nc3ccc(F)cc32)c1C` [Sunitinib, sunitinib], the remaining activity at 1 µM at IRR came to 77 ± 24%; at GCK, 11 ± 1%; at SmMLCK, 26 ± 3%; at CK2 it was 72 ± 1%; at SGK1, 26 ± 5%; at TTK, 72 ± 6%. In addition, the remaining activity at 1 µM stood at 33 ± 6% at IGF-1R, 77 ± 9% on PKCα and 72 ± 5% at PAK4. The “percentage of kinase activity compared with control” value in the test on AMPK is 51 ± 3%. Also, the remaining activity at 0.1 µM on PHK came to 11 ± 1%; at Aurora B kinase, 72 ± 5%. The “effect on ERM protein phosphorylation” value in test [1] was “did not inhibit”. Moreover, in test [2], the “number of kinases significantly inhibited” value is 12.
